Test results taken from patent US8507445B2, “Compositions and methods of use of targeting peptides for diagnosis and therapy of human cancer” (Board of Regents, The University of Texas System, priority 2002, dated 2013).
“Also recorded” adds a separate entry of the source.

Key:
MDA-MB-435 cells = assay: Enhancement of phage transduction by genotoxic agents or trans-complementation; type: cell-based, human; conditions: cells infected with targeted phage, 72 hours post-infection; drugs 10 μM
Procedure: Semi-confluent MDA-MB-435 cells were infected with 10^5 TU of phage per cell for 4 hours in serum free media, after which fresh medium supplemented with FCS was added (no phage were washed out or removed). In some experiments, a phage admixture of forward and reverse clones at 10^10 TU (forward/reverse molar ratio=1) was tested. Next, cells were incubated for 36 hours followed by the addition of genotoxic drugs (topotecan, 10 μM; cisplatin, 10 μM) or administration of UV radiation (15 J/m^2) with a cross-linker apparatus (UV Stratalinker Model 2400; Stratagene). At 72 hours post-infection, the cells were analyzed for transduction of a reporter gene (β-gal or GFP), and gene expression was normalized per cell number relative to controls.

prostate = assay: In vivo phage display in a human patient, tripeptide motif analysis; conditions: motifs in peptides isolated from prostate, compared with unselected phage library
From the text: A large-scale preparation of a CX7C (C, cysteine; X, any amino acid residue) phage display random peptide library was optimized to create the highest possible insert diversity (Pasqualini et al., 2000). The diversity of the library was about 2×10^8 and its final titer was about 10^12 transducing units (TU)/ml. For biopanning with human subjects, use of a large-scale phage display library (diversity about 2×10^8) is advantageous compared to the smaller scale libraries used in mouse studies. Short-term intravenous infusion of the phage library (a total dose of 10^14 phage TU suspended in 100 ml of saline) into the patient was followed by multiple representative tissue biopsies. Prostate and liver samples were obtained by needle biopsy under ultrasonographic guidance. Skin, fat tissue, and skeletal muscle samples were obtained by surgical excision. Bone marrow needle aspirates and core biopsies were also obtained. Histopathological diagnosis was determined by examination of frozen sections processed from tissues obtained at the bedside.
Triplicate samples were processed for host bacterial infection, phage recovery, and histopathological analysis. In brief, tissues were weighed, ground with a glass Dounce homogenizer, suspended in 1 ml of Dulbecco Modified Eagle's medium (DMEM) containing proteinase inhibitors (DMEM-prin; 1 mM PMSF, 20 μg/ml aprotinin, and 1 μg/ml leupeptin), vortexed, and washed three times with DMEM-prin. The human tissue homogenates were incubated with 1 ml of host bacteria (log phase E. coli K91kan; OD600˜2). Aliquots of the bacterial culture were plated onto Luria-Bertani agar plates containing 40 μg/ml tetracycline and 100 μg/ml of kanamycin. Plates were incubated overnight at 37° C. Bacterial colonies were processed for sequencing of phage inserts recovered from each tissue and from unselected phage library. Human samples were handled with universal blood and body fluid precautions.
A high-throughput character pattern recognition program (M.D. Anderson Cancer Center, Biostatistics, Houston, Tex.) was developed to automate the analysis of the peptide motifs derived from phage screenings. […]
In order to identify the motifs that were enriched in the screening, the count for each tripeptide motif within each tissue was compared with the count for that tripeptide motif within the unselected library. Starting from a CX7C peptide insert, counts were recorded for all overlapping interior tripeptide motifs, subject only to reflection and single-voting restrictions. […] The significance of association of a given allocation of counts was assessed by Fisher's exact test (one-tailed). […]

[1] = biological target: vascular endothelial growth factor receptor-1 (VEGFR1) (Homo sapiens, UniProt P17948); assay: Ligand-receptor binding assay in vitro with immobilized receptor; conditions: recombinant VEGFR1
vascular endothelial growth factor receptor-1 (VEGFR1), sequence (P17948 27-1338, species assumed): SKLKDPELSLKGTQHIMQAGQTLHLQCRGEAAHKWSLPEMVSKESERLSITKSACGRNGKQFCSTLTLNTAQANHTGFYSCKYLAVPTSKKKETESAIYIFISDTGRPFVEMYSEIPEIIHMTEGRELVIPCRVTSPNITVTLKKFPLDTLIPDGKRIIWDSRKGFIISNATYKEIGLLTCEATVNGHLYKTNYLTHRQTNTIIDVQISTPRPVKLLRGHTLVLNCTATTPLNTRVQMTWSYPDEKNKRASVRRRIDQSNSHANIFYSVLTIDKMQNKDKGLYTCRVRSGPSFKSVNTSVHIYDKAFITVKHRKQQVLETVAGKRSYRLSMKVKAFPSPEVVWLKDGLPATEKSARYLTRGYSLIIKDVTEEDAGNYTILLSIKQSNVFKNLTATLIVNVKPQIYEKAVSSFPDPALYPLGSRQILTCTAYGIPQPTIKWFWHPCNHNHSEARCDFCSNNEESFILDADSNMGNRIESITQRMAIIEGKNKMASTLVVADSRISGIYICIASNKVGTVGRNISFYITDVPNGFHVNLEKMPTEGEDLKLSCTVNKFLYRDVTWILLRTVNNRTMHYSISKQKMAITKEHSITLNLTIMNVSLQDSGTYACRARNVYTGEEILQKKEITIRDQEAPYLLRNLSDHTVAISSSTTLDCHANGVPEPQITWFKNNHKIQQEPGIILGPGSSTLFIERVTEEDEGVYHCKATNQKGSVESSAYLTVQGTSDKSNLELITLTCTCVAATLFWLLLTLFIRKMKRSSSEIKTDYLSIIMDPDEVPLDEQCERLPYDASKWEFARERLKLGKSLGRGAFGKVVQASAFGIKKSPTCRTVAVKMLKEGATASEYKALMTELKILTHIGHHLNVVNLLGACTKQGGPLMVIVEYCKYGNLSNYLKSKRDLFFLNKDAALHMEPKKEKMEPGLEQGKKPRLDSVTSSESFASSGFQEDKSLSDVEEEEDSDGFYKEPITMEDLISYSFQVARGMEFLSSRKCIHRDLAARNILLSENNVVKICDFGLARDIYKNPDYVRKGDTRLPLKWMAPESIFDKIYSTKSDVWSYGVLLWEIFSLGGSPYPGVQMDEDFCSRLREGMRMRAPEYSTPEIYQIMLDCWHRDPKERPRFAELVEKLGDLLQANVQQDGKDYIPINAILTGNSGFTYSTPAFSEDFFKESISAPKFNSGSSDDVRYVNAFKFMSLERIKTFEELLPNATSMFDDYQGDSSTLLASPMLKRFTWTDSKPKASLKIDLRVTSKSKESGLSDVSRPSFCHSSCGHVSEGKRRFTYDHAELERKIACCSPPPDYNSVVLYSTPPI
Procedure: (§1) Recombinant IL-11Rα vascular endothelial growth factor receptor-1 (VEGFR1) or leptin receptor (OB—R) were incubated with phage displaying the […] (SEQ ID NO:37) peptide. VEGFR1 was used as a representative vascular receptor, while OB—R was used because it shares a co-receptor with IL-11Rα. An unrelated phage clone displaying the peptide […] (SEQ ID NO:38) and insertless fd-tet phage were used as controls. […] Binding of […] (SEQ ID NO:37)-phage to IL-11Rα was specific, since it was inhibited by the native IL-11 ligand in a concentration-dependent manner (not shown). […] These observations with normal prostate tissues were followed by an examination of the expression of IL-11Rα in tumors, as discussed in the present Example.

leptin receptor (OB—R) = leptin receptor (OB—R) (Homo sapiens, UniProt P48357); assay: as above; conditions: recombinant OB—R
leptin receptor (OB—R), sequence (P48357 22-1165, species assumed): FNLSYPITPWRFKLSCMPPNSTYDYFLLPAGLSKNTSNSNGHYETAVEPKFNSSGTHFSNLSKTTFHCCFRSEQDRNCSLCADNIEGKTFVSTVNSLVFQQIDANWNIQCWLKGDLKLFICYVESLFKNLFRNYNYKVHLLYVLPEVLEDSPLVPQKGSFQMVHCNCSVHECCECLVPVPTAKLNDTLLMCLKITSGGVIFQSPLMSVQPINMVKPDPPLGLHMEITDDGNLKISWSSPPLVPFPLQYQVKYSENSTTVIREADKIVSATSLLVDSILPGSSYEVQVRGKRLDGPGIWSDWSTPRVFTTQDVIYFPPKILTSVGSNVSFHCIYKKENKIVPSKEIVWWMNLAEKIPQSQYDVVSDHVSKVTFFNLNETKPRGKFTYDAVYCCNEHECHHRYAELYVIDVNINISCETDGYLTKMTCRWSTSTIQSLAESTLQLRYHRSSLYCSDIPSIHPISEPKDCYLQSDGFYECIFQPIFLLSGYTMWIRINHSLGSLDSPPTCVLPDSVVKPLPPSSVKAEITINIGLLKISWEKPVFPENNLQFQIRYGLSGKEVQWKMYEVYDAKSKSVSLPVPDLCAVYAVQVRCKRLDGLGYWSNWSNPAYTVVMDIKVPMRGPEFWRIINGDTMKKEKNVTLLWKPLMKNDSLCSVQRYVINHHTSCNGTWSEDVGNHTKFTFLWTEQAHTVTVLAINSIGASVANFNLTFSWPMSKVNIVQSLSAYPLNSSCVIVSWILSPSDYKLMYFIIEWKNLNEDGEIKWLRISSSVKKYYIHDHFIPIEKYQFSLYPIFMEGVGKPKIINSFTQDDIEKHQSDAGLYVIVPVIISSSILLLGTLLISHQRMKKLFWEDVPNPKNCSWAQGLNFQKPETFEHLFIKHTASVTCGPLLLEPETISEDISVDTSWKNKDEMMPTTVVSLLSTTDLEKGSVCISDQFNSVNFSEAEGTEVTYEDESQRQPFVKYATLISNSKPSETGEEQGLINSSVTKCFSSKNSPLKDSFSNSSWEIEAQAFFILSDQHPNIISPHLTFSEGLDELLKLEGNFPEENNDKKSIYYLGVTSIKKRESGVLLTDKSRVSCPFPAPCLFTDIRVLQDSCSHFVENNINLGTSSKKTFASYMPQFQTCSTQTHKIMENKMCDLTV
Procedure: as §1

IL-11Rα = biological target: T1, IL-11Rα (Homo sapiens, UniProt Q14626); assay: as above; conditions: for phage binding to immobilized receptor: recombinant IL-11Rα
T1 sequence (Q14626 23-422): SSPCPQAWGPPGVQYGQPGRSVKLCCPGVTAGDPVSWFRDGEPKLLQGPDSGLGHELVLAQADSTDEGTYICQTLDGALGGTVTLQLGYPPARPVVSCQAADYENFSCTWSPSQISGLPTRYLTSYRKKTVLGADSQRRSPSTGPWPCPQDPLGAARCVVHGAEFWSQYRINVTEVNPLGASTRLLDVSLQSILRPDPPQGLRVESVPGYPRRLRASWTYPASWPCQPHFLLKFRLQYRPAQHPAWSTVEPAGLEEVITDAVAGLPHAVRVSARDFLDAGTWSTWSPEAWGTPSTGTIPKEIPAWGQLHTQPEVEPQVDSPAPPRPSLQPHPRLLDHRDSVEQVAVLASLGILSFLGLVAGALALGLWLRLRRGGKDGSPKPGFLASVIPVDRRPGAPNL
Procedure: as §1

[2] = test system: serum antibodies of prostate cancer patients; assay: ELISA of serum reactivity against GST-fusion peptides; type: binding, human
Procedure: A 20 μg/ml solution of purified GST or GST-fusion proteins in 0.1M NaHCO3 was used to coat maxisorp multi-well plates (Nalge Nunc International Corporation) and incubated overnight at 4° C. The plates were blocked in a blocking buffer (4% milk, 2% casein, and 0.05% Tween-20) for 3-4 hours. A series of […] dilutions (1:100-1:1200) of sera from prostate cancer patients or healthy individuals was added and incubated for 1.5 hours and then washed five times with washing buffer (1% milk, 0.5% casein, and 0.025% Tween-20), followed by incubation at 4° C. with anti-human alkaline phosphatase-conjugated antibodies (Gibco). The plates were then washed six times in washing buffer and developed using p-NPP (Sigma) as a substrate. An automatic ELISA plate reader (BIO-TEK instrument) recorded the results at OD405 nm.
Probabilities of survival for each group were estimated using the Kaplan-Meier method. A log-rank test was implemented in order to detect significant differences between the groups. Reactivity was considered to be detected if the ratio between GST-peptide and GST alone was greater or equal to two by the ELISA data. A Log-Rank test was used to determine statistical differences between groups. A statistical CART analysis (Classification And Regression Tree) was used to identify the best cut-off point for determining reactivity to GRP78. In this method, the censored survival data were transformed into a single uncensored data value (the so-called “null martingale residual”), which was used as input into a standard regression tree algorithm. A cut-off point of 0.95 was determined by this program

[3] = test system: immunoglobulins from the serum of metastatic prostate cancer patients; assay: Biopanning of CX6C phage library on IgGs from serum of prostate cancer patients A, B, C; type: binding, human; conditions: second and third rounds; patient A, B or C that yielded the peptide
From the text: Sera was selected from patients diagnosed with androgen-dependent and androgen-independent prostate cancer. A CX6C peptide library was screened against this pool of IgGs in a two-step procedure. First, the peptide library was pre-cleared against a pool of purified IgGs from normal serum samples using Protein G affinity chromatography. This step removed peptides from the phage display library that bound to immunoglobulins from patients without prostate cancer. Next, the pre-cleared peptide library was screened against the pool of purified IgGs from the serum of prostate cancer patients. This step selected peptides binding specifically to IgGs elicited against prostate cancer.
A 6-mer cyclic peptide (CX6C) phage display library was used for the biopanning. To select peptides specific to the serum antibodies of cancer patients, a pre-clearing stage was employed to remove non-specific peptides by pre-absorbing the peptide library onto purified IgGs from pooled normal serum (five healthy male individuals). The pre-cleared peptide library was screened onto the purified IgGs from the serum of prostate cancer patients. In brief, 10^9 transducing units (T.U.) of a CX6C cyclic peptide phage library were incubated with IgG antibodies from 50 μl of normal serum immobilized on 50 μl of protein G (Gibco BRL) for 1 hour at 4° C. This was followed by affinity selection on the immobilized IgG antibodies from prostate cancer patient serum for 2 hours at 4° C. Phage peptides specifically bound to IgGs elicited against prostate cancer were eluted with 100 μl of 0.1 M glycine buffer, pH 2.2, neutralized by the addition of 10 μl 1M Tris pH 9.0, and used to infect E. coli strain K91. Ten-fold serial dilutions of the infected solution were spread onto agar plates containing 40 μg/ml of tetracycline and grown overnight. Two hundred colonies were picked, amplified, and precipitated for a subsequent round of panning. A total of three rounds were performed. Individual phage clones were picked for PCR and the insert DNA was sequenced.

skin = assay: Phage overlay assay on human tissue sections; type: binding
From the text: (§2) To test the tissue specificity of the IL-11 peptide mimic, a phage overlay assay was developed to evaluate receptor-ligand interactions in tissue sections, using the motif RRAGGS (SEQ ID NO:34) (Arap et al., Nature Med. 8:121-127, 2002).

normal prostate = assay: Phage overlay assay on human tissue sections; type: binding
From the text: as §2

adipose tissue = assay: Validation of adipose homing phage in vivo; design: species or system obese mice; conditions: mouse
From the text: A substractive phage display protocol (see Example 8 below) was used to isolate fat targeting peptides from a genetically obese mouse (Zhang et al., Nature, 372:425-432, 1994; Pelleymounter et al., Science 269:540-543, 1994). Phage that had been subjected to biopanning in obese mice were post-cleared in a normal mouse. The fat-targeting peptides isolated included TRNTGNI (SEQ ID NO:72), FDGQDRS (SEQ ID NO:73); WGPKRL (SEQ ID NO:74); WGESRL (SEQ ID NO:75); VMGSVTG (SEQ ID NO:76), KGGRAKD (SEQ ID NO:77), RGEVLWS (SEQ ID NO:78), TREVHRS (SEQ ID NO:79) and HGQGVRP (SEQ ID NO:80).
The fat homing clones selected were: FA—KGGRAKD (SEQ ID NO:77), FC—RGEVLWS (SEQ ID NO:78), FE—TREVHRS (SEQ ID NO:79) and FX—VMGSVTG (SEQ ID NO:76).

N.N.[Cl][Pt][Cl] [cisplatin]
reporter gene transduction relative to controls (MDA-MB-435 cells): several fold higher

CC[C@@]1(O)C(=O)OCc2c1cc1n(c2=O)Cc2cc3c(CN(C)C)c(O)ccc3nc2-1 [topotecan]
reporter gene transduction relative to controls (MDA-MB-435 cells): several fold higher

AGG [tripeptide motif isolated from prostate]
Motif Frequency (prostate): 2.5

CGRRAGGSC
phage binding to immobilized receptor [1]: Neither OB—R nor VEGFR1 showed binding | phage binding to immobilized receptor (leptin receptor (OB—R)): Neither OB—R nor VEGFR1 showed binding | phage binding to immobilized receptor (IL-11Rα): significant amount of binding

CNVSDKSC
positive serum reactivity ([2]; 71 age-matched healthy men (control)): 7% | positive serum reactivity ([2]; metastatic androgen-independent prostate cancer): 76% | positive serum reactivity ([2]; organ-confined prostate cancer patients): 6% | positive serum reactivity ([2]; patients with androgen-dependent tumors): 29% | share of the clones analyzed [3]: 55%

CRVDFSKGC [reference compound]
phage binding to immobilized receptor (IL-11Rα): Neither of the control phage exhibited selective binding

EGR [tripeptide motif isolated from prostate]
Motif Frequency (prostate): 1.0

GER [tripeptide motif isolated from prostate]
Motif Frequency (prostate): 0.9

GVL [tripeptide motif isolated from prostate]
Motif Frequency (prostate): 2.3

HGGVG [motif of a control phage that localized to skin tissue, reference compound]
phage binding to tissue section (skin): specifically recognized blood vessels in the skin | phage binding to tissue section (normal prostate): did not bind to prostate tissue

KGGRAKD [FA]
homing to adipose tissue compared to control fd-tet phage (adipose tissue): some elevation of homing to adipose tissue

RGEVLWS [FC]
homing to adipose tissue compared to control fd-tet phage (adipose tissue): some elevation of homing to adipose tissue

RRAGGS [prostate-targeting motif, IL-11 peptide mimic]
phage binding to tissue section (normal prostate): specifically bound to the endothelium and epithelium of normal prostate

TREVHRS [FE]
homing to adipose tissue compared to control fd-tet phage (adipose tissue): some elevation of homing to adipose tissue

VMGSVTG [FX]
homing to adipose tissue compared to control fd-tet phage (adipose tissue): some elevation of homing to adipose tissue; also recorded: several orders of magnitude higher adipose localization

B1: IL-11: native IL-11 ligand, cytokine (protein)
chain: PGPPPGPPRVSPDPRAELDSTVLLTRSLLADTRQLAAQLRDKFPADGDHNLDSLPTLAMSAGALGALQLPGVLTRLRADLLSYLRHVQWLRRAGGSSLKTLEPELGTLQARLDRLLRRLQLLMSRLALPQPPPDPPAPPLAPPSSAWGGIRAAHAILGGLHLTLDWAVRGLLLLKTRL
inhibition of CGRRAGGSC-phage binding to IL-11Rα (IL-11Rα; concentration of about 0.1 nM): ~100%
